{"source": "patent US9682078B2", "about": "“Compositions and methods for tissue engineering and cell based therapies” (University of Virginia Patent Foundation, priority 2011, dated 2017)", "key": {"[1]": {"system": "donor (GFP+) cells", "assay": "Bone marrow transplant after lethal irradiation with equal number of mobilized cells", "details": "two-week chimerism after competitive BMT with equal numbers of mobilized cells; FIG. 10D", "experimental": "WT mice were irradiated & reconstituted with mobilized peripheral blood cells from GFP+ mice. After varying amounts of time, blood was collected via the retro-orbital sinus and bone marrow was harvested to assess chimerism over time.\n100 μL blood was plated on methocult stem cell differentiation medium and after 6 days colony forming units were quantified. […] Cells tested included—Host cells, PB donor cells and BM donor cells were tested. Treatments included—AMD cells, A+V cells, AMD Sca1+, A+V Sca1+, AMD CD45+, A+V CD45+, AMD CD11b+, and A+V CD11b+."}, "[2]": {"system": "5 mm cranial defects", "assay": "Rat cranial critical size bone defect, microCT and flow cytometry", "type": "in vivo", "description": "5 mm cranial defects were made in 36 nine weeks old Sprague Daley rats, which were divided into 4 groups (n=9). The rats were treated with a systemic dose of 1 mpk VPC01091, FTY720 coated semi-circular allograft, FTY720 coated semi-circular allograft+a systemic dose of 1 mpk VPC01091 or left untreated. VPC01091 was given the day after surgery and 3 weeks post-surgery. Hemavet (Drew Scientifics) was used to measure the concentrations of blood cells at days 0, week 1 and week 2 (n=6) (data not shown). The amount of bone regeneration was measured bi-weekly with microCT imaging (n=3-9). Flow cytometry was performed according to standard procedures on the tissue harvested from the defect sites at week 3 (n=3), and from peripheral blood at week 6 (n=3). Monoclonal antibodies (Invitrogen, Abeam) for rat CD45, CD11b, CD54, CD90 were used in both cases. Mason's Trichrome and H&E staining were done for done for all groups (n=3)."}, "[3]": {"target": "S1P1 receptor (Homo sapiens, UniProt P21453)", "sequence (P21453 whole entry)": "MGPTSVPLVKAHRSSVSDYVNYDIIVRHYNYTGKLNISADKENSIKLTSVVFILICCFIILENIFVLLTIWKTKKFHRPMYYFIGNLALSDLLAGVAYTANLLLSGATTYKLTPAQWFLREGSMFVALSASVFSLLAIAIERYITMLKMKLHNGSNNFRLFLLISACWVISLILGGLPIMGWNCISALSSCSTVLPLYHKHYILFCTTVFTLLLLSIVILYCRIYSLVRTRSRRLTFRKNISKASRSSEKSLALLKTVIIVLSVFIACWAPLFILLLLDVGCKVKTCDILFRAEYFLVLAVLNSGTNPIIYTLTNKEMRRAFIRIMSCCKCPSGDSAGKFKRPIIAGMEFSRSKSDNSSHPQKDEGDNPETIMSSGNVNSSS", "details": "cited from earlier work"}, "[4]": {"system": "Lineage1−/Sca1+/c-kit+ (LSK) hematopoietic stem cells", "assay": "Transwell migration of sorted LSK hematopoietic stem cells toward SDF-1 and S1P", "type": "cell-based, mouse", "details": "cells pre-treated with compound (15 nM for VPC01091, VPC01211)", "description": "Whole bone marrow cells were harvested from C57Bl/6 mice tibiae. They were pre-labeled with antibodies against Lineage 1, Sca1, and c-kit and the LSK subset were sorted, serum starved, and plated at equal concentration after pre-treatment with FTY720. Migration toward media, SDF1, and S1P was calculated.\nHematopoietic stem cell migration was also studied (FIG. 17). Lineage1−/Sca1+/c-kit+ (LSK) hematopoietic stem cells were sorted and serum starved for two hours. Cells were pre-treated with 15 nM VPC01211 or not and plated for transwell migration assays toward plain media, SDF-1 or S1P."}, "[5]": {"target": "S1P3 receptor (Homo sapiens, UniProt Q99500)", "sequence (Q99500 whole entry)": "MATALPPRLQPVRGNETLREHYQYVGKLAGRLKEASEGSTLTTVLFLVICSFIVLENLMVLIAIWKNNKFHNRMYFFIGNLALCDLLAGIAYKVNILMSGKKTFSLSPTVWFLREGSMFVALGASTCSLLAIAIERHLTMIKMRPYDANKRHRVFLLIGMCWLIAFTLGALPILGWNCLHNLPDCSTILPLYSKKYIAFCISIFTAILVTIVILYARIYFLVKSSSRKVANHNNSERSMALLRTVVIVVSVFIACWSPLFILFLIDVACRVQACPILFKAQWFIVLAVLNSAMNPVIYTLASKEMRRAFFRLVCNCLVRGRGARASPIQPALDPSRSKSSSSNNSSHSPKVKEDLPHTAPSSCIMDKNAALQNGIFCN", "details": "cited from earlier work"}, "[6]": {"system": "whole BMCs on FBMD-1 stromal cells", "assay": "Cobblestone area-forming cell assay", "type": "cell-based, mouse", "details": "BMCs pre-treated 30 minutes; FIG. 19", "excerpt": "Ordinate—% Positive Wells."}, "[7]": {"system": "dorsal tissue", "assay": "Murine dorsal skinfold window chamber with PLAGA films, flow cytometry of dorsal tissue", "type": "in vivo, mouse", "details": "local application from PLAGA films", "description": "(§1) 1 mm poly(lactic-co-glycolic acid) PLAGA films loaded with S1P receptor compounds are placed within the window chamber as shown. Repeated measurements of the same vessel networks are recorded and quantified over a 7-day time course using intravital microscopy. (FIG. 3).\n(§2) Backpacks were implanted with PLAGA films and collagenase was used to digest dorsal tissue directly around the implants after 3 days to create single cell suspensions. Flow cytometry was used to assess cellular content. A feeder artery to the spinotrapezius muscle was ligated, creating an ischemic environment, and confocal microscopy on whole-mounted tissue was used to assess CX3CR1 expression in the muscle (FIG. 5)."}, "[8]": {"system": "CD45+/CD11b+/Ly6Chigh/CX3CR1low inflammatory monocytes (IM)", "assay": "Transwell migration of sorted inflammatory monocytes after FTY720 pre-treatment", "type": "cell-based, mouse", "details": "FIG. 6B", "excerpt": "(§3) CD45^+/CD11b^+/Ly6C^low/CX3CR1^high anti-inflammatory monocytes (AM) and CD45^+/CD11b^+/Ly6C^high/CX3CR1^low inflammatory monocytes (IM) (FIG. 6C) were sorted from mouse marrow. […] In vivo, in tissue from the murine dorsal skinfold window chamber, the recruitment of IMs to dorsal tissue was attenuated with local FTY720 application from PLAGA films (FIG. 6D). Cells that are CD45^+/CD11b^+/Ly6C^high/CX3CR1^low/CD105^+ and have a decreasing expression of Sca1 (a progenitor cell marker) are consistent with endothelial progenitor derived endothelial cells (EPC-ECs). […] Local FTY720 stimulation attenuates the infiltration of inflammatory cells and recruits regenerative stem cells. (See FIGS. 3-6)."}, "[9]": {"system": "dorsal microvasculature", "details": "sustained release from 50:50 PLAGA films (1:200 wt/wt); cited from earlier work"}, "[10]": {"system": "critical size calvarial bone defects", "details": "3D PLAGA scaffolds delivering FTY720; cited from earlier work"}, "[11]": {"system": "CD45+/CD11b+/Ly6Clow/CX3CR1high anti-inflammatory monocytes (AM)", "assay": "Transwell migration of sorted anti-inflammatory monocytes after FTY720 pre-treatment", "type": "cell-based, mouse", "details": "FIG. 6A", "excerpt": "as §3"}, "[12]": {"system": "ischemic spinotrapezius muscle", "assay": "Arterial ligation of spinotrapezius muscle with PLAGA film implantation, confocal microscopy", "type": "in vivo, mouse", "details": "FIG. 7", "excerpt": "as §2"}, "[13]": {"system": "dorsal microvasculature", "assay": "Murine dorsal skinfold window chamber, intravital microscopy of microvascular remodeling", "type": "in vivo, mouse", "details": "S1P3 selectively antagonized on marrow-derived cells (BM S1P3−/−); 3 days post-implantation; FIG. 8", "description": "as §1"}, "[14]": {"details": "in vivo; cited from earlier work"}, "[15]": {"details": "in the absence of a carrier protein; cited from earlier work"}, "[16]": {"system": "bone marrow cells", "assay": "Transwell migration of bone marrow cells toward SDF-1", "type": "cell-based, rat", "details": "pre-treated 10 ng/ml 30 minutes", "description": "Bone marrow cells were collected from the tibia of Sprague Daley rats (Charles River), scrum starved for 2 hours, and the cell suspension at 2×10^6 cells/ml was pre-treated with serum-free medium, or 10 ng/ml FTY720-P (Cayman) for 30 minutes and then were re-suspended in serum-free DMEM (Invitrogen). 100 μl of the pre-treated cell suspension was added to the top of 5 μm transwell inserts (Costar) in a 24-well plate. The bottom of the wells contained 600 μl of serum-free DMEM or 12.5 nM SDF-1 (ProspecBio). The cells were incubated at 37° C. for 4 hours, and then the number of cells at the top and the bottom of the transwells were counted using an automatic cell counter. The cells that migrated toward SDF-1 after pre-treatment with FTY720-P were collected from the bottom of the transwells and treated with monoclonal antibodies to CD45, CD11b and CD90 prior to flow analysis. Flow cytometry was performed according to standard procedures and was analyzed on a 9 color CyAn flow cytometer."}, "[17]": {"system": "smooth muscle", "details": "daily injections; cited from earlier work"}, "[18]": {"details": "PLAGA film, ligated feeder artery"}}}
{"smiles": "CCCCCCCCc1ccc(C2CCC(N)(CO)C2)cc1", "note": "(stereo not shown) [VPC01091]", "values": [{"measurement": "engraftment and repopulation efficiency in vivo", "setting": "[1]", "result": "does not impair"}, {"measurement": "bone regeneration compared to the empty defect controls", "setting": "[2]; systemic 1 mpk, day after surgery and 3 weeks post-surgery, microCT, FIG. 11", "result": "substantial bi-weekly increase"}, {"measurement": "percentage of CD54 and CD90 positive cells in the defect region", "setting": "[2]; week 3, FIG. 12a", "result": "increase"}, {"measurement": "percentage of CD54 and CD90 positive cells in the blood", "setting": "[2]; week 6, FIG. 12b", "result": "increase"}, {"measurement": "activity at S1P1 receptor", "setting": "[3]", "result": "agonist"}, {"measurement": "HSC migration / homing toward S1P", "setting": "[4]", "result": "sensitized"}, {"measurement": "HSC migration / homing toward SDF-1", "setting": "[4]", "result": "desensitized"}, {"measurement": "activity at S1P3 receptor", "setting": "[5]", "result": "antagonist"}]}
{"smiles": "CCCCCCCCc1ccc(C2CCC(N)(COP(=O)(O)O)C2)cc1", "note": "(stereo not shown) [VPC01211]", "values": [{"measurement": "adhesion / engraftment on bone marrow stromal cell layer", "setting": "[6]", "result": "less engraftment than AMD3100"}, {"measurement": "HSC migration / homing toward S1P", "setting": "[4]", "result": "did not affect"}, {"measurement": "HSC migration / homing toward SDF-1", "setting": "[4]", "result": "abrogated"}]}
{"smiles": "CCCCCCCCc1ccc(CCC(N)(CO)CO)cc1", "note": "[FTY720, 2-amino-2-[2-(4-octylphenyl)ethyl]propane 1,3-diol]", "values": [{"measurement": "EPC-ECs in dorsal tissue", "setting": "[7]", "result": "increased"}, {"measurement": "recruitment of IMs to dorsal tissue", "setting": "[7]; FIG. 6D", "result": "attenuated"}, {"measurement": "migration of IMs towards S1P", "setting": "[8]", "result": "decreased"}, {"measurement": "migration of IMs towards SDF-1", "setting": "[8]", "result": "decreased"}, {"measurement": "arteriole formation and enlargement", "setting": "[9]", "result": "promotes formation of new arterioles and structural enlargement of existing arterioles"}, {"measurement": "osseous tissue ingrowth", "setting": "[10]", "result": "significantly increases"}, {"measurement": "proportion of mature smooth muscle cell-invested microvessels within the bony defect", "setting": "[10]", "result": "significantly increases"}, {"measurement": "migration of AMs towards SDF-1", "setting": "[11]", "result": "increased"}, {"measurement": "HSC migration / homing toward S1P", "setting": "[4]", "result": "abolishes"}, {"measurement": "HSC migration / homing toward SDF-1", "setting": "[4]", "result": "improves"}, {"measurement": "recruitment of vessel-associated CX3CR1+ cells", "setting": "[12]; CX3CR1-eGFP mice", "result": "recruitment of vessel-associated CX3CR1+ cells"}, {"measurement": "remodeling in ischemic muscle", "setting": "[12]; [18]", "result": "induces remodeling in ischemic muscle"}, {"measurement": "tortuosity of vessels", "setting": "[12]; [18]", "result": "promotes tortuosity of vessels"}, {"measurement": "FTY720-induced microvascular remodeling", "setting": "[13]", "result": "impaired"}, {"measurement": "half-life", "setting": "[14]", "result": "approximately 7 days"}]}
{"smiles": "CCCCCCCCCCCCC/C=C/[C@@H](O)[C@@H](N)COP(=O)(O)O", "note": "[S1P, Sphingosine 1-phosphate]", "values": [{"measurement": "solubility in aqueous solutions", "setting": "[15]", "result": "insoluble"}, {"measurement": "half-life in blood", "setting": "[14]", "result": "less than 1 hour"}]}
{"smiles": "CCCCCCCCc1ccc(CC[C@](N)(CO)COP(=O)(O)O)cc1", "note": "[FTY720-P]", "values": [{"measurement": "total number of cells migrating toward SDF-1", "setting": "[16]; 12.5 nM SDF-1, 4 hours, FIG. 11E", "result": "significantly increased"}, {"measurement": "percentage of CD90+; CD45−/CD11b− cells migrating toward SDF-1", "setting": "[16]; FIG. 11F", "result": "higher percentage"}]}
{"smiles": "CCCCCCCCc1cccc(NC(=O)[C@H](N)CCP(=O)(O)O)c1", "note": "[VPC44116]", "values": [{"measurement": "smooth muscle proliferation and migration", "setting": "[17]", "result": "significantly decreased"}]}
